The results in this text go back to patent US9809602B2, “Compounds for treating viral infections” (INSTITUT PASTEUR KOREA, priority 2014, dated 2017).

The test system of the first assay is genotype 1/2 chimeric cell culture derived HCV (HCVcc). Nature of the assay: Genotype 1/2 chimeric HCVcc assay (nano-luciferase, HCV replication). Format: cell-based. The conditions noted are these: Hepatitis C virus. The protocol:
Naïve Huh-7.5 target cells were plated at 2400 cells/well in 25 μL of culture media in 384-well plates (Greiner bio-one, μ clear black). After overnight incubation, compounds serially diluted in 10 μL of cell culture media were added. After 2 h compound treatment, cells were inoculated with 40 μL of genotype 1/2 chimeric cell culture derived HCV (HCVcc) which express structural proteins of an HCV genotype 1a isolate (TN accession number EF621489) and non-structural proteins of HCV genotype 2a (JFH-1) with nano-luciferase reporter. At 72 h post infection, nano-luciferase activity (Nano-Glo™, Promega) and cellular ATP (Cell titer-Glo™, Promega) were measured as a marker for HCV replication and cytotoxicity, respectively. EC50 and CC50 were calculated by non-linear regression analyzing using GraphPad Prism (GraphPad Software).
As usually defined, the EC50 is the midpoint of the concentration-response curve. On to `O=C(NCCCN1CCC(N2CCCCC2)CC1)c1ccc(-c2ccccc2Cl)cc1` [Compound 1146], for which the EC50 was 100 to 1000 nM.
On the same count and under the same terms, with `O=C(NCCCN1CCCC1)c1cc2c(s1)CCCC2` [Compound 1004] the figure was > 10000 nM; with `O=C(NCCCN1CCC(N2CCCCC2)CC1)c1ccc(-c2ccc(Cl)cc2C(F)(F)F)cc1` [Compound 1136], 100 to 1000 nM.
The same measure, in the same setting: in the case of `O=C(NCCCN1CCC(N2CCCCC2)CC1)c1ccc(-c2ccc(Cl)cc2)cc1` [Compound 1021] it was 100 to 1000 nM.
On the same count and under the same terms, in the case of `NC(=O)c1ccc(-c2ccc(C(=O)NCCCN3CCC(N4CCCCC4)CC3)cc2)cc1` [Compound 1129] it was > 10000 nM.
Consider `O=C(NCCCN1CCC(N2CCCCC2)CC1)c1ccc2cc[nH]c2c1` [Compound 1008], for which the EC50 is > 10000 nM.
Same read-out and setting: with `O=C(NCCCN1CCC(N2CCCC2)CC1)c1ccc(Oc2ccccc2)cc1` [Compound 1067] the figure was 100 to 1000 nM; with `O=C(NCCCN1CCC(N2CCCCC2)CC1)c1ccc(-c2cccc(N3CCOCC3)c2)cc1` [Compound 1142], 1000 to 10000 nM; with `O=C(NCCCCN1CCC(N2CCCCC2)CC1)c1ccc(Oc2ccccc2)cc1` [Compound 1045], 100 to 1000 nM.
Same read-out and setting: in the case of `O=C(NCCCN1CCC(N2CCCCC2)CC1)c1ccc(-c2ccc(C(F)(F)F)cc2)cc1` [Compound 1019] it was 100 to 1000 nM; in that of `O=C(NCCCN1CCC(N2CCCCC2)CC1)c1c(F)cc(-c2ccc(C(F)(F)F)cc2)cc1F` [Compound 1106], 100 to 1000 nM.

The same assay, now with this note: Hepatitis C virus, Huh7.5, 72 h.
Take `CC(C)OC(=O)c1c(NC(=O)NCc2c(C(F)(F)F)sc3c2CCN(C)C3)sc2c1CCCC2` [Compound 169]: the EC50 is < 100 nM.
Still for that read-out and setting: with `CCOC(=O)c1c(NC(=O)NCc2cc(CN(C)C)ccc2F)sc2c1CCCC2` [Compound 108] the figure was 100 to 1000 nM.
Take `O=C(NCc1c(-c2ccco2)sc2c1CCNC2)Nc1sc2c(c1C(=O)OC1CCOC1)CCCC2` (stereo not shown) [Compound 342]: the EC50 was < 100 nM.
On the same count and under the same terms, with `CCOC(=O)c1c(NC(=O)NCc2c(C(F)(F)F)sc3c2CCNC3)sc2c1CCOC2` [Compound 150] the figure was < 100 nM.
Still for that read-out and setting: in the case of `CCN1CCc2c(sc(C(F)(F)F)c2CNC(=O)Nc2sc3c(c2C(=O)OC(C)C)CCCC3)C1` [Compound 171] it was < 100 nM; in that of `CCOC(=O)c1c(NC(=O)NCc2c(C(F)(F)F)sc3c2CCNC3)sc2c1CC(C)CC2` (stereo not shown) [Compound 194], < 100 nM; in that of `CCOC(=O)c1c(NC(=O)NCc2c(C(F)(F)F)sc3c2CCNC3)sc2c1CCC(F)(F)C2` [Compound 219], < 100 nM.
Regarding `CCN1CCc2c(sc(-n3cccc3)c2CNC(=O)Nc2sc3c(c2C#N)CCCC3)C1` [Compound 5], the EC50 was > 10000 nM.
Same read-out and setting: in the case of `CC(C)(C)OC(=O)c1c(NC(=O)NCc2c(-c3ccc4cc[nH]c4c3)sc3c2CCNC3)sc2c1CCCC2` [Compound 201] it was 1000 to 10000 nM; in that of `CC1CCCc2sc(NC(=O)NCc3c(C(F)(F)F)sc4c3CCNC4)c(C(=O)OC(C)(C)C)c21` (stereo not shown) [Compound 265], < 100 nM; in that of `CC(C)(C)OC(=O)c1c(NC(=O)NCc2c(C(F)(F)F)sc3c2CCNC3)sc2c1CCC(O)C2` (stereo not shown) [Compound 349], < 100 nM.
The same measure, in the same setting: in the case of `CCN1CCc2c(sc(-n3cccc3)c2CNC(=O)Nc2ccccc2)C1` [Compound 8] it was > 10000 nM; in that of `Cc1sc(NC(=O)NCc2c(-n3c(C)ccc3C)sc3c2CCNC3)c(C(=O)OC2CCOC2)c1C` (stereo not shown) [Compound 353], 1000 to 10000 nM.
For `CC1Cc2c(sc(NC(=O)NCc3c(-n4cccc4)sc4c3CCN(C)C4)c2C(=O)OC(C)(C)C)C(C)C1` (stereo not shown) [Compound 293], the EC50 was < 100 nM.
The same measure, in the same setting: with `CCOC(=O)c1c(NC(=O)NCc2c(Br)sc3c2CCN(C(C)C)C3)sc2c1CCCC2` [Compound 200] the figure was < 100 nM; with `CCc1sc2c(c1CNC(=O)Nc1sc3c(c1C(=O)OC(C)(C)C)CCCCC3)CCNC2` [Compound 312], < 100 nM.
Take `CC(C)(C)OC(=O)c1c(NC(=O)NCc2c(C(F)(F)F)sc3c2CCN(CCO)C3)sc2c1CCCC2` [Compound 373]: the EC50 is < 100 nM.
